Among the data in patent US20200392116A1, “SUBSTITUTED HETEROCYCLES AS c-MYC TARGETING AGENTS” (NORTHWESTERN UNIVERSITY, priority 2019, published 2020) are Potency code values, retold here.

A short description of the test: Potency code of Table 2 (assay not stated).
Turning to `[N-]=[N+]=NCCOCCOCCOCCOCC(=O)Nc1ccc(COc2ccc(-c3cc(C(F)(F)F)n[nH]3)c(O)c2-c2cc(C(F)(F)F)cc(C(F)(F)F)c2)cc1` [NUCC-0201200], the Potency code result was “+ (>40 +)”.

As for `Nc1ccc(COc2ccc(-c3cc(C(F)(F)F)n[nH]3)c(O)c2-c2cc(C(F)(F)F)cc(C(F)(F)F)c2)cc1` [NUCC-0201201], the Potency code entry is reported as “++++ (<10 ++++)”. Under `CCCCOc1ccc(-c2cc(C(F)(F)F)nn2C)c(O)c1-c1cncc(C(F)(F)F)c1` [NUCC-0201204] stands “+++ (10-30 +++)”; under `CCCCCCOc1ccc(-c2cc(C(F)(F)F)nn2C)c(O)c1-c1cncc(C(F)(F)F)c1` [NUCC-0201205], “++++ (<10 ++++)”; under `CC(C)CCOc1ccc(-c2cc(C(F)(F)F)nn2C)c(O)c1-c1cncc(C(F)(F)F)c1` [NUCC-0201206], “++++ (<10 ++++)”. Under `CC(C)CCOc1ccc(-c2cc(C(F)(F)F)nn2C)c(O)c1-c1cncc(C#N)c1` [NUCC-0201208] stands “++++ (<10 ++++)”; under `CCCCCCOc1ccc(-c2cc(C(F)(F)F)n(C)n2)c(O)c1-c1cncc(C(F)(F)F)c1` [NUCC-0201210], “+ (>40 +)”. Under `CC(C)CCOc1ccc(-c2cc(C(F)(F)F)n(C)n2)c(O)c1-c1cncc(C(F)(F)F)c1` [NUCC-0201211] stands “+ (>40 +)”; under `CCCCCCOc1ccc(-c2cc(C(F)(F)F)n(C)n2)c(O)c1-c1cncc(C#N)c1` [NUCC-0201212], “+ (>40 +)”; under `CC(C)CCOc1ccc(-c2cc(C(F)(F)F)n(C)n2)c(O)c1-c1cncc(C#N)c1` [NUCC-0201213], “++++ (<10 ++++)”. On to `C#CCOc1ccc(COc2ccc(-c3cc(C(F)(F)F)n[nH]3)c(O)c2-c2cc(C(F)(F)F)cc(C(F)(F)F)c2)cc1` [NUCC-0201219], for which the Potency code result is reported as “++++ (<10 ++++)”.

In the case of `COc1ccc(-c2cc(C(F)(F)F)[nH]n2)c(O)c1-c1cc(C(F)(F)F)cc(C(F)(F)F)c1` [NUCC-0201220], the Potency code result is recorded as “++++ (<10 ++++)”. Then `COc1ccc(-c2cc(C(F)(F)F)n(C)n2)c(O)c1-c1cc(C(F)(F)F)cc(C(F)(F)F)c1` [NUCC-0201221], with “+ (>40 +)”; and `COc1ccc(-c2cc(C(F)(F)F)nn2C)c(O)c1-c1cc(C(F)(F)F)cc(C(F)(F)F)c1` [NUCC-0201222], with “+++ (10-30 +++)”; and `CCCCOc1ccc(-c2cc(C(F)(F)F)n[nH]2)c(O)c1-c1ccc(Cl)c(C(F)(F)F)c1` [NUCC-0201225], with “+ (>40 +)”. Under `CCCCOc1ccc(-c2cc(C(F)(F)F)nn2C)c(O)c1-c1ccc(Cl)c(C(C)(C)F)c1` [NUCC-0201226] stands “+++ (10-30 +++)”; under `CCCCOc1ccc(-c2cc(C(F)(F)F)n(C)n2)c(O)c1-c1ccc(Cl)c(C(F)(F)F)c1` [NUCC-0201227], “++++ (<10 ++++)”; under `Cn1nc(C(F)(F)F)cc1-c1ccc(OCc2ccc(Cl)cc2)c(-c2cncc(C(F)(F)F)c2)c1O` [NUCC-0201630], “+ (>40 +)”. Then `Cn1nc(-c2ccc(OCc3ccc(Cl)cc3)c(-c3cncc(C(F)(F)F)c3)c2O)cc1C(F)(F)F` [NUCC-0201631], with “+ (>40 +)”; and `Cn1nc(C(F)(F)F)cc1-c1ccc(OCc2ccc(Cl)cc2)c(-c2cncc(C#N)c2)c1O` [NUCC-0201632], with “+++ (10-30 +++)”; and `Cn1nc(-c2ccc(OCc3ccc(Cl)cc3)c(-c3cncc(C#N)c3)c2O)cc1C(F)(F)F` [NUCC-0201633], with “+ (>40 +)”.

As for `CC(C)CCOc1ccc(-c2cc(C(F)(F)F)[nH]n2)c(O)c1-c1ccc(Cl)c(C(F)(F)F)c1` [NUCC-0201634], the Potency code entry is “++ (30-40 ++)”. Turning to `CC(C)CCOc1ccc(-c2cc(C(F)(F)F)nn2C)c(O)c1-c1ccc(Cl)c(C(F)(F)F)c1` [NUCC-0201635], the Potency code result is listed as “+ (>40 +)”. Under `CC(C)CCOc1ccc(-c2cc(C(F)(F)F)[nH]n2)c(O)c1-c1cncc(C(F)(F)F)c1` [NUCC-0201636] stands “+ (>40 +)”. `CCCCOc1ccc(-c2cc(C(F)(F)F)[nH]n2)c(O)c1-c1cncc(C(F)(F)F)c1` [NUCC-0201637]: the Potency code result is “+ (>40 +)”. Under `CCCCOc1ccc(-c2cc(C(F)(F)F)nn2C)c(O)c1-c1cncc(C#N)c1` [NUCC-0201638] stands “+ (>40 +)”. As for `CCCCOc1ccc(-c2cc(C(F)(F)F)n(C)n2)c(O)c1-c1cncc(C#N)c1` [NUCC-0201639], the Potency code result is “+ (>40 +)”. Then `NCCOc1ccc(-c2cc(C(F)(F)F)n[nH]2)c(O)c1-c1ccc(Cl)c(C(F)(F)F)c1` [NUCC-0201640], with “+ (>40 +)”; and `Cn1nc(-c2ccc(OCCN)c(-c3ccc(Cl)c(C(F)(F)F)c3)c2O)cc1C(F)(F)F` [NUCC-0201641], with “+ (>40 +)”; and `Cn1nc(C(F)(F)F)cc1-c1ccc(OCCCN)c(-c2ccc(Cl)c(C(F)(F)F)c2)c1O` [NUCC-0201642], with “+ (>40 +)”. Under `Cn1nc(-c2ccc(OCCCN)c(-c3ccc(Cl)c(C(F)(F)F)c3)c2O)cc1C(F)(F)F` [NUCC-0201643] stands “+ (>40 +)”; under `CC(C)(C)OC(=O)NCCOc1ccc(-c2cc(C(F)(F)F)n[nH]2)c(O)c1-c1cncc(C(F)(F)F)c1` [NUCC-0201644], “+ (>40 +)”. Then `NCCCOc1ccc(-c2cc(C(F)(F)F)n[nH]2)c(O)c1-c1ccc(Cl)c(C(F)(F)F)c1` [NUCC-0201646], with “+ (>40 +)”. In the case of `Cn1nc(C(F)(F)F)cc1-c1ccc(OCc2ccc([N+](=O)[O-])cc2)c(-c2cc(C(F)(F)F)cc(C(F)(F)F)c2)c1O` [NUCC-0201648], the Potency code result is “+ (>40 +)”. In the case of `Cn1nc(-c2ccc(OCc3ccc([N+](=O)[O-])cc3)c(-c3cc(C(F)(F)F)cc(C(F)(F)F)c3)c2O)cc1C(F)(F)F` [NUCC-0201649], the Potency code entry is reported as “+ (>40 +)”. Consider `CCCCOc1ccc(-c2cc(C(F)(F)F)nn2C)c(O)c1-c1cc(C(F)(F)F)cc(C(F)(F)F)c1` [NUCC-0201651], for which the Potency code entry is “+ (>40 +)”. Under `CCCCOc1ccc(-c2cc(C(F)(F)F)n(C)n2)c(O)c1-c1cc(C(F)(F)F)cc(C(F)(F)F)c1` [NUCC-0201652] stands “+ (>40 +)”; under `Cn1nc(C(F)(F)F)cc1-c1ccc(OCc2ccc([N+](=O)[O-])cc2)c(-c2cncc(C(F)(F)F)c2)c1O` [NUCC-0201653], “+++ (10-30 +++)”; under `Cn1nc(-c2ccc(OCc3ccc([N+](=O)[O-])cc3)c(-c3cncc(C(F)(F)F)c3)c2O)cc1C(F)(F)F` [NUCC-0201654], “+ (>40 +)”.

In the case of `Cn1nc(C(F)(F)F)cc1-c1ccc(OCCCNC(=O)OC(C)(C)C)c(-c2cncc(C(F)(F)F)c2)c1O` [NUCC-0201655], the Potency code entry was “+ (>40 +)”. Under `Cn1nc(-c2ccc(OCCCNC(=O)OC(C)(C)C)c(-c3cncc(C(F)(F)F)c3)c2O)cc1C(F)(F)F` [NUCC-0201656] stands “+ (>40 +)”. Under `Cn1nc(C(F)(F)F)cc1-c1ccc(OCCCNC(=O)OC(C)(C)C)c(-c2ccc(Cl)c(C(F)(F)F)c2)c1O` [NUCC-0201657] stands “+ (>40 +)”; under `Cn1nc(-c2ccc(OCCCNC(=O)OC(C)(C)C)c(-c3ccc(Cl)c(C(F)(F)F)c3)c2O)cc1C(F)(F)F` [NUCC-0201658], “++ (30-40 ++)”. As for `C#CCCC(=O)NCCCOc1ccc(-c2cc(C(F)(F)F)n[nH]2)c(O)c1-c1ccc(Cl)c(C(F)(F)F)c1` [NUCC-0201659], the Potency code result is reported as “+ (>40 +)”.

With `O=C(CCc1cn(CCOCCOCCOCC(=O)Nc2cccc3c2C(=O)N(C2CCC(=O)NC2=O)C3=O)nn1)NCCOc1ccc(-c2cc(C(F)(F)F)n[nH]2)c(O)c1-c1cncc(C(F)(F)F)c1` (stereo not shown) [NUCC-0201660], the Potency code result was “+ (>40 +)”.

For `Nc1ccc(COc2ccc(-c3cc(C(F)(F)F)n[nH]3)c(O)c2-c2cncc(C(F)(F)F)c2)cc1` [NUCC-0201661], the Potency code result is given as “+ (>40 +)”. Under `C#CCC(N=[N+]=[N-])C(=O)NCCCOc1ccc(-c2cc(C(F)(F)F)n(C)n2)c(O)c1-c1cncc(C(F)(F)F)c1` (stereo not shown) [NUCC-0201694] stands “+ (>40 +)”; under `C#CCC(N=[N+]=[N-])C(=O)NCCCOc1ccc(-c2cc(C(F)(F)F)nn2C)c(O)c1-c1ccc(Cl)c(C(F)(F)F)c1` (stereo not shown) [NUCC-0201695], “+ (>40 +)”.

As to `C#CCC(N=[N+]=[N-])C(=O)NCCCOc1ccc(-c2cc(C(F)(F)F)nn2C)c(O)c1-c1cncc(C(F)(F)F)c1` (stereo not shown) [NUCC-0201696], the Potency code result was “++ (30-40 ++)”. Then `C#CCC(N=[N+]=[N-])C(=O)NCCOc1ccc(-c2cc(C(F)(F)F)n[nH]2)c(O)c1-c1cncc(C(F)(F)F)c1` (stereo not shown) [NUCC-0201697], with “+ (>40 +)”; and `C#CCC(N=[N+]=[N-])C(=O)Nc1ccc(COc2ccc(-c3cc(C(F)(F)F)nn3C)c(O)c2-c2cncc(C(F)(F)F)c2)cc1` (stereo not shown) [NUCC-0201698], with “+ (>40 +)”. Then `C#CCC(N=[N+]=[N-])C(=O)Nc1ccc(COc2ccc(-c3cc(C(F)(F)F)n(C)n3)c(O)c2-c2cncc(C(F)(F)F)c2)cc1` (stereo not shown) [NUCC-0201699], with “+ (>40 +)”; and `Cn1nc(C(F)(F)F)cc1-c1ccc(OCCCNC(=O)COCCOCCOCCn2cc(COc3cccc4c3C(=O)N(C3CCC(=O)NC3=O)C4=O)nn2)c(-c2ccc(Cl)c(C(F)(F)F)c2)c1O` (stereo not shown) [NUCC-0201702], with “+ (>40 +)”; and `Cn1nc(C(F)(F)F)cc1-c1ccc(OCCCNC(=O)COCCOCCOCCn2cc(COc3cccc4c3C(=O)N(C3CCC(=O)NC3=O)C4=O)nn2)c(-c2cncc(C(F)(F)F)c2)c1O` (stereo not shown) [NUCC-0201703], with “+ (>40 +)”. Then `O=C(COCCOCCOCCn1cc(COc2cccc3c2C(=O)N(C2CCC(=O)NC2=O)C3=O)nn1)NCCOc1ccc(-c2cc(C(F)(F)F)n[nH]2)c(O)c1-c1cncc(C(F)(F)F)c1` (stereo not shown) [NUCC-0201704], with “+ (>40 +)”; and `C#CCOc1cccc2c1C(=O)N(C1CCC(=O)NC1=O)C2=O` (stereo not shown) [NUCC-0201705], with “+ (>40 +)”.

For `Oc1c(-c2cc(C(F)(F)F)[nH]n2)ccc(OCc2ccc(Cl)cc2)c1-c1ccsc1` [NUCC-0201909], the Potency code result is given as “+ (>40 +)”. Under `Oc1c(-c2cc(C(F)(F)F)[nH]n2)ccc(OCc2ccc(Cl)cc2)c1C1CC1` [NUCC-0201910] stands “+ (>40 +)”.
